Measured values as given in patent US20180042234A1, “FUNGICIDAL PYRAZOLES” (E I DU PONT DE NEMOURS AND COMPANY, priority 2015, published 2018).
Marks after values point to notes of the source that are not given here.

Tests used:
Assay type in all cases: in vivo
[1] = system: Puccinia recondita f. sp. tritici; experiment: Test A: wheat leaf rust, preventive spray on wheat seedlings, visual disease rating
Description: (§1) General protocol for preparing test suspensions for Tests A-E: the test compounds were first dissolved in acetone in an amount equal to 3% of the final volume and then suspended at the desired concentration (in ppm) in acetone and purified water (50/50 mix by volume) containing 250 ppm of the surfactant Trem® 014 (polyhydric alcohol esters). The resulting test suspensions were then used in Tests A-E. Spraying a 200 ppm test suspension to the point of run-off on the test plants was the equivalent of a rate of 800 g/ha.
The test suspension was sprayed to the point of run-off on wheat seedlings. The following day the seedlings were inoculated with a spore suspension of Puccinia recondita f. sp. tritici (the causal agent of wheat leaf rust) and incubated in a saturated atmosphere at 20° C. for 24 h, and then moved to a growth chamber at 20° C. for 7 days, after which time visual disease ratings were made.
(§2) Results for Tests A-E are given in Table A. In the Table, a rating of 100 indicates 100% disease control and a rating of 0 indicates no disease control (relative to the controls). A dash (-) indicates no test results. All results are for 200 ppm except where followed by an asterisk “*” which indicates a 250 ppm test suspension was used or a double asterisk “**” which indicates a 50 ppm test suspension was used.

Septoria tritici = experiment: Test B: wheat leaf blotch, preventive spray on wheat seedlings, visual disease rating
Description: as §1
The test suspension was sprayed to the point of run-off on wheat seedlings. The following day the seedlings were inoculated with a spore suspension of Septoria tritici (the causal agent of wheat leaf blotch) and incubated in a saturated atmosphere at 24° C. for 48 h, and then moved to a growth chamber at 20° C. for 19 days, after which time visual disease ratings were made.
as §2

Botrytis cinerea = experiment: Test C: tomato Botrytis, preventive spray on tomato seedlings, visual disease rating
Description: as §1
The test suspension was sprayed to the point of run-off on tomato seedlings. The following day the seedlings were inoculated with a spore suspension of Botrytis cinerea (the causal agent of tomato Botrytis) and incubated in a saturated atmosphere at 20° C. for 48 h, and then moved to a growth chamber at 24° C. for 3 days, after which time visual disease ratings were made.
as §2

[2] = system: Blumeria graminis f sp. tritici; experiment: Test D: wheat powdery mildew, preventive spray on wheat seedlings, visual disease rating
Description: as §1
The test suspension was sprayed to the point of run-off on wheat seedlings. The following day the seedlings were inoculated with a spore dust of Blumeria graminis f sp. tritici, (also known as Erysiphe graminis f sp. tritici, the causal agent of wheat powdery mildew) and incubated in a growth chamber at 20° C. for 8 days, after which time visual disease ratings were made.
as §2

[3] = 200 ppm test suspension, 100 = 100% disease control, 0 = no control

Cc1nn(C)c(Oc2ccc(F)cc2Cl)c1C1OCCCO1 [Compound 37]
Test A disease control rating ([1]; 250 ppm test suspension (*)): 52* %
Test B disease control rating (Septoria tritici; 250 ppm test suspension (*)): 5* %
Test C disease control rating (Botrytis cinerea; 250 ppm test suspension (*)): 0* %
Test D disease control rating ([2]; 250 ppm test suspension (*)): 63* %

Cc1nn(C)c(Nc2ccc(F)cc2F)c1C1CCC(C)(C)CC1 [Compound 19]
Test A disease control rating ([1]; 250 ppm test suspension (*)): 0* %
Test B disease control rating (Septoria tritici; 250 ppm test suspension (*)): 1* %
Test C disease control rating (Botrytis cinerea; 250 ppm test suspension (*)): 0* %
Test D disease control rating ([2]; 250 ppm test suspension (*)): 96* %

Cc1nn(C)c(Oc2ccc(F)cc2Cl)c1C1OCC(C)(C)CO1 [Compound 38]
Test A disease control rating ([1]; 250 ppm test suspension (*)): 52* %
Test B disease control rating (Septoria tritici; 250 ppm test suspension (*)): 93* %
Test C disease control rating (Botrytis cinerea; 250 ppm test suspension (*)): 0* %
Test D disease control rating ([2]; 250 ppm test suspension (*)): 94* %

Cc1nn(C)c(Nc2ccc(F)cc2F)c1C1CCOCC1 [Compound 59]
Test A disease control rating ([1]; 250 ppm test suspension (*)): 41* %
Test B disease control rating (Septoria tritici; 250 ppm test suspension (*)): 92* %
Test C disease control rating (Botrytis cinerea; 250 ppm test suspension (*)): 24* %
Test D disease control rating ([2]; 250 ppm test suspension (*)): 98* %

CC(=NOC(C)C)c1c(C)nn(C)c1Nc1ccc(F)cc1Cl [Compound 28]
Test A disease control rating ([1]; 250 ppm test suspension (*)): 32* %
Test B disease control rating (Septoria tritici; 250 ppm test suspension (*)): 24* %
Test C disease control rating (Botrytis cinerea; 250 ppm test suspension (*)): 0* %
Test D disease control rating ([2]; 250 ppm test suspension (*)): 0* %

Cc1nn(C)c(Nc2ccc(F)cc2F)c1C1=CCOCC1 [Compound 58]
Test A disease control rating ([1]; 250 ppm test suspension (*)): 0* %
Test B disease control rating (Septoria tritici; 250 ppm test suspension (*)): 25* %
Test C disease control rating (Botrytis cinerea; 250 ppm test suspension (*)): 0* %
Test D disease control rating ([2]; 250 ppm test suspension (*)): 0* %

Cc1nn(C)c(Oc2ccc(F)cc2Cl)c1C=NO [Compound 42]
Test A disease control rating ([1]; 250 ppm test suspension (*)): 9* %
Test B disease control rating (Septoria tritici; 250 ppm test suspension (*)): 0* %
Test C disease control rating (Botrytis cinerea; 250 ppm test suspension (*)): 7* %
Test D disease control rating ([2]; 250 ppm test suspension (*)): 81* %

Cc1nn(C)c(Nc2ccc(F)cc2Cl)c1C1CCC(C)(C)CC1 [Compound 62]
Test A disease control rating ([1]; 250 ppm test suspension (*)): 68* %
Test B disease control rating (Septoria tritici; 250 ppm test suspension (*)): 9* %
Test C disease control rating (Botrytis cinerea; 250 ppm test suspension (*)): 0* %
Test D disease control rating ([2]; 250 ppm test suspension (*)): 96* %

Cn1nc(Br)c(C2OCCCO2)c1C(O)c1ccc(F)cc1Cl (stereo not shown) [Compound 8]
Test A disease control rating ([1]; 250 ppm test suspension (*)): 0* %
Test B disease control rating (Septoria tritici; 250 ppm test suspension (*)): 5* %
Test C disease control rating (Botrytis cinerea; 250 ppm test suspension (*)): 0* %
Test D disease control rating ([2]; 250 ppm test suspension (*)): 72* %

CCCCC(CC)c1c(C)nn(C)c1Nc1ccc(F)cc1Cl (stereo not shown) [Compound 3]
Test A disease control rating [1, 3]: 9%
Test B disease control rating (Septoria tritici; 200 ppm test suspension): 0%
Test D disease control rating ([2]; 200 ppm test suspension): 0%

CCC(OC)c1c(C)nn(C)c1Oc1c(F)cccc1F (stereo not shown) [Compound 25]
Test A disease control rating ([1]; 250 ppm test suspension (*)): 99* %
Test B disease control rating (Septoria tritici; 250 ppm test suspension (*)): 6* %
Test C disease control rating (Botrytis cinerea; 250 ppm test suspension (*)): 0* %
Test D disease control rating ([2]; 250 ppm test suspension (*)): 0* %

Cc1nn(C)c(C(O)c2ccc(F)cc2F)c1C1CCCCC1 (stereo not drawn) [Compound 12, 4-cyclohexyl-α-(2,4-difluorophenyl)-1,3-dimethyl-1H-pyrazole-5-methanol]
Test A disease control rating ([1]; 250 ppm test suspension (*)): 94* %
Test B disease control rating (Septoria tritici; 250 ppm test suspension (*)): 100* %
Test C disease control rating (Botrytis cinerea; 250 ppm test suspension (*)): 61* %
Test D disease control rating ([2]; 250 ppm test suspension (*)): 97* %

Cc1nn(C)c(Nc2c(F)cc(Cl)cc2F)c1C1=CCCCC1C (stereo not shown) [Compound 22]
Test A disease control rating [1, 3]: 68%
Test C disease control rating (Botrytis cinerea; 200 ppm test suspension): 99%
Test D disease control rating ([2]; 200 ppm test suspension): 56%

Cc1nn(C)c(Nc2ccc(F)cc2)c1C1CCOCC1 [Compound 57]
Test A disease control rating ([1]; 250 ppm test suspension (*)): 0* %
Test B disease control rating (Septoria tritici; 250 ppm test suspension (*)): 44* %
Test C disease control rating (Botrytis cinerea; 250 ppm test suspension (*)): 0* %
Test D disease control rating ([2]; 250 ppm test suspension (*)): 89* %

Cc1nn(C)c(Nc2ccc(F)cc2Cl)c1C1CCC(C)CC1 (stereo not shown) [Compound 61]
Test A disease control rating ([1]; 250 ppm test suspension (*)): 0* %
Test B disease control rating (Septoria tritici; 250 ppm test suspension (*)): 53* %
Test C disease control rating (Botrytis cinerea; 250 ppm test suspension (*)): 0* %
Test D disease control rating ([2]; 250 ppm test suspension (*)): 97* %

CON=C(C)c1c(C)nn(C)c1N(C)c1ccc(F)cc1Cl [Compound 33]
Test A disease control rating ([1]; 50 ppm test suspension (**)): 17** %
Test B disease control rating (Septoria tritici; 50 ppm test suspension (**)): 0** %
Test C disease control rating (Botrytis cinerea; 50 ppm test suspension (**)): 7** %
Test D disease control rating ([2]; 50 ppm test suspension (**)): 0** %

CCCON=C(C)c1c(C)nn(C)c1Nc1ccc(F)cc1Cl [Compound 27]
Test A disease control rating ([1]; 250 ppm test suspension (*)): 9* %
Test B disease control rating (Septoria tritici; 250 ppm test suspension (*)): 17* %
Test C disease control rating (Botrytis cinerea; 250 ppm test suspension (*)): 0* %
Test D disease control rating ([2]; 250 ppm test suspension (*)): 69* %

CCON=C(C)c1c(C)nn(C)c1N(CC)c1ccc(F)cc1Cl [Compound 29]
Test A disease control rating ([1]; 250 ppm test suspension (*)): 55* %
Test B disease control rating (Septoria tritici; 250 ppm test suspension (*)): 14* %
Test C disease control rating (Botrytis cinerea; 250 ppm test suspension (*)): 0* %
Test D disease control rating ([2]; 250 ppm test suspension (*)): 0* %

Cc1nn(C)c(Nc2ccc(F)cc2Cl)c1C1=CCOCC1 [Compound 21]
Test A disease control rating ([1]; 250 ppm test suspension (*)): 0* %
Test B disease control rating (Septoria tritici; 250 ppm test suspension (*)): 17* %
Test C disease control rating (Botrytis cinerea; 250 ppm test suspension (*)): 42* %
Test D disease control rating ([2]; 250 ppm test suspension (*)): 13* %

CC(=CC(C)C)c1c(C)nn(C)c1Nc1ccc(F)cc1Cl [Compound 31]
Test A disease control rating ([1]; 250 ppm test suspension (*)): 55* %
Test B disease control rating (Septoria tritici; 250 ppm test suspension (*)): 6* %
Test C disease control rating (Botrytis cinerea; 250 ppm test suspension (*)): 0* %
Test D disease control rating ([2]; 250 ppm test suspension (*)): 48* %

Cc1nn(C)c(Nc2ccc(F)cc2Cl)c1C1CCC(C#N)CC1 (stereo not shown) [Compound 65]
Test A disease control rating ([1]; 250 ppm test suspension (*)): 55* %
Test B disease control rating (Septoria tritici; 250 ppm test suspension (*)): 54* %
Test C disease control rating (Botrytis cinerea; 250 ppm test suspension (*)): 0* %
Test D disease control rating ([2]; 250 ppm test suspension (*)): 13* %

CCC(C)c1c(C)nn(C)c1Nc1c(F)cc(Cl)cc1F (stereo not shown) [Compound 23, N-(4-chloro-2,6-difluorophenyl)-1,3-dimethyl-4-(1-methylpropyl)-1H-pyrazol-5-amine]
Test A disease control rating [1, 3]: 68%
Test C disease control rating (Botrytis cinerea; 200 ppm test suspension): 98%
Test D disease control rating ([2]; 200 ppm test suspension): 95%

Cc1nn(C)c(Nc2ccc(F)cc2)c1C1CCC(C)CC1 (stereo not shown) [Compound 64]
Test A disease control rating ([1]; 250 ppm test suspension (*)): 55* %
Test B disease control rating (Septoria tritici; 250 ppm test suspension (*)): 58* %
Test C disease control rating (Botrytis cinerea; 250 ppm test suspension (*)): 0* %
Test D disease control rating ([2]; 250 ppm test suspension (*)): 96* %

Cc1nn(C)c(Nc2ccc(F)cc2F)c1C1CCC(C#N)CC1 (stereo not shown) [Compound 63]
Test A disease control rating ([1]; 250 ppm test suspension (*)): 86* %
Test B disease control rating (Septoria tritici; 250 ppm test suspension (*)): 55* %
Test C disease control rating (Botrytis cinerea; 250 ppm test suspension (*)): 0* %
Test D disease control rating ([2]; 250 ppm test suspension (*)): 96* %

CC=C(C)c1c(C)nn(C)c1Nc1c(F)cc(Cl)cc1F [Compound 24, N-(4-chloro-2,6-difluorophenyl)-1,3-dimethyl-4-(1-methyl-1-propen-1-yl)-1H-pyrazol-5-amine]
Test A disease control rating [1, 3]: 94%
Test B disease control rating (Septoria tritici; 200 ppm test suspension): 96%
Test C disease control rating (Botrytis cinerea; 200 ppm test suspension): 85%
Test D disease control rating ([2]; 200 ppm test suspension): 100%

Cc1nn(C)c(Nc2ccc(F)cc2Cl)c1C1CCOCC1 [Compound 56]
Test A disease control rating ([1]; 250 ppm test suspension (*)): 55* %
Test B disease control rating (Septoria tritici; 250 ppm test suspension (*)): 100* %
Test C disease control rating (Botrytis cinerea; 250 ppm test suspension (*)): 100* %
Test D disease control rating ([2]; 250 ppm test suspension (*)): 99* %

Cn1nc(Br)c(C2OCCCO2)c1C(O)c1ccc(F)cc1F (stereo not shown) [Compound 10]
Test A disease control rating ([1]; 250 ppm test suspension (*)): 0* %
Test B disease control rating (Septoria tritici; 250 ppm test suspension (*)): 0* %
Test C disease control rating (Botrytis cinerea; 250 ppm test suspension (*)): 0* %
Test D disease control rating ([2]; 250 ppm test suspension (*)): 90* %

Cc1nn(C)c(Nc2ccc(F)cc2F)c1C1=CCC(C#N)CC1 (stereo not shown) [Compound 18]
Test A disease control rating ([1]; 250 ppm test suspension (*)): 19* %
Test B disease control rating (Septoria tritici; 250 ppm test suspension (*)): 79* %
Test C disease control rating (Botrytis cinerea; 250 ppm test suspension (*)): 73* %
Test D disease control rating ([2]; 250 ppm test suspension (*)): 0* %

CC(=O)c1c(C)nn(C)c1Nc1ccc(F)cc1Cl [Compound 32]
Test A disease control rating ([1]; 250 ppm test suspension (*)): 19* %
Test C disease control rating (Botrytis cinerea; 250 ppm test suspension (*)): 56* %
Test D disease control rating ([2]; 250 ppm test suspension (*)): 0* %
